Experimental findings from patent US20240190841A1, “MODULATORS OF BCL6 PROTEOLYSIS AND ASSOCIATED METHODS OF USE” (Arvinas Operations, Inc., priority 2022, published 2024) are described below.

Molecules are shown by their SMILES.

The target in the assay is T1, BCL6 (Homo sapiens, UniProt P41182).
T1 construct: endogenous in cells; host or cells: T47D breast cancer epithelial cells
The experiment in a line: Immunofluorescence high content imaging of BCL6 degradation in T47D cells. It counts as cell-based. The note with it: T47D breast cancer epithelial cells, 3 days incubation. Here is the method:
Immunofluorescence Protocol for High Content Imaging of BCL6
T47D cells were seeded in 100 μl volume of RPMI11640-10% FBS in a 96-well black/clear bottom plates for adherent lines (Corning #3904).
Day 1. T47D breast cancer epithelial cells were seeded at a density so that confluence is ˜70-90% at endpoint. Cells were seeded at 7K/0.1 mL/well the morning prior to the addition of exemplary bifunctional degradation compounds.
Day 2. Prepare an 11 point 3-fold serial dilution of exemplary bifunctional compound in DMSO and aliquot an appropriate volume to cell growth media to generate a 2× final concentration of exemplary bifunctional compound. Add an equal volume (0.1 ml) of 2× exemplary bifunctional compound/media mix to previously plated cells, for a final top concentration in aqueous cell growth media of 0.1 or 1 μM. Incubate for 3 days at 37° C., 5% CO2.
Day 5 Immunofluorescence. Discard cell media. Wash wells with 200 μl of room temperature phosphate-buffered saline (PBS). Prepared 4% paraformaldehyde (PFA) from 16% PFA (Electron Microscopy Sciences #15710) using 1×PBS. Fifty μL of 4% PF was added to each well and incubate for 15 minutes at room temperature to fix the cells. The PFA was aspirated and the cells washed twice with PBS (200 μL)).
Prepared 0.1% Triton X-100 in PBS using 10% triton X-100 stock. The cells were permeabilized by adding 100 μL of the 0.1% Triton X-100 in PBS to each well to permeabilize cells and incubating at room temperature for 15 minutes. Cells were washed twice with PBS.
Prepared 3% BSA/PBS (from Thermofisher #37515 Blocker BSA in TBS, 10%), and 100 μL was added to each well. The cells were incubated for at least 1 hour at room temperature.
Prepared 1% BSA/PBS using Blocker BSA/PBS, and the 3% BSA/PBS removed from the wells.
For no primary antibody controls, 50 μL 1% BSA/PBS was added.
Primary antibody (BCL6 Rb Ab, CST-14895, Cell Signaling) was diluted 1:300 in 1% BSA/PBS using Blocker BSA/PBS.
Fifty μl of primary antibody added to all remaining wells (i.e., all wells other than the primary antibody controls) and the cells were incubated overnight at 4° C. with slow orbital movement.
Day 6. Contents of the wells was removed and the cells washed four times with 200 μL PBS. 1% BSA/PBS was prepared using Blocker BSA in PBS.
Diluted secondary antibody goat anti-Rb IgG Alexa-488 1:1000, and cell mask-Alexa-647 1:3000 in 1% BSA/PBS in the same mix. Add 50 μL to each well and incubate at room temperature for 1 hour in the dark.
Cells were washed three times with 200 μL PBS, and then incubated for 10 minutes with 100 μL Hoechst dye at 1 μg/mL (20 mM stock) to stain cell nuclei. Wells were then washed with 200 μl PBS, and 100 μL of PBS was added to each well and the plate covered plate with a plastic opaque cover. Plates were stored at […] and covered in aluminum foil until imaged.
Plates were equilibrated to room temperature prior to reading. The bottom of the plate was wiped with 70% isopropanol immediately prior to imaging.
Imaging: • 10×, 4 fields/well, include Top hat smoothing in the analysis protocol.
Supplies/Reagents: • 16% paraformaldehyde: Electron Microscopy Sciences #15710 • Hoechst: Thermofisher #62249 • Blocker BSA in PBS, 10%: Thermofisher #37515 • Blocker BSA in TBS, 10%: Thermofisher #37520 • Goat anti-rabbit or mouse AlexaFluor-488: Thermofisher #A11008 • Cell mask deep red AlexaFluor-647: Thermofisher #C10046 • Wash buffer, PBS: 20×PBS, Thermofisher
The DC50 is the midpoint of the concentration-degradation curve. As a reminder, the Dmax is the largest share of the target that was removed. Low values mean a partial loss of target, high ones a fuller loss of target. In turn, `CNC(=O)COc1cc2cc(Nc3nc(N4CCC(O[C@H]5C[C@H](N6CCN(c7cc(F)c8c(c7)n(C)c(=O)n8C7CCC(=O)NC7=O)CC6)C5)CC4)ncc3Cl)ccc2n(C(C)C)c1=O` (stereo partly shown) [Compound 10, 2-({6-[(5-chloro-2-{4-[(1r,3r)-3-{4-[1-(2,6-dioxopiperidin-3-yl)-7-fluoro-3-methyl-2-oxo-2,3-dihydro-1H-1,3-benzodiazol-5-yl]piperazin-1-yl}cyclobutoxy]piperidin-1-yl}pyrimidin-4-yl)amino]-2-oxo-1-(propan-2-yl)-1,2-dihydroquinolin-3-yl}oxy)-N-methylacetamide] registered a DC50 of less than 0.01 µM and a Dmax of no less than 70%.

As to `CNC(=O)COc1cc2cc(Nc3nc(N4CCC(O[C@H]5C[C@H](N6CCN(c7ccc8c(c7)n(C7CCC(=O)NC7=O)c(=O)n8C)CC6)C5)CC4)ncc3Cl)ccc2n(C(C)C)c1=O` (stereo partly shown) [Compound 11, 2-({6-[(5-chloro-2-{4-[(1r,3r)-3-{4-[3-(2,6-dioxopiperidin-3-yl)-1-methyl-2-oxo-2,3-dihydro-1H-1,3-benzodiazol-5-yl]piperazin-1-yl}cyclobutoxy]piperidin-1-yl}pyrimidin-4-yl)amino]-2-oxo-1-(propan-2-yl)-1,2-dihydroquinolin-3-yl}oxy)-N-methylacetamide], the DC50 is 0.01 to 0.05 µM and the greatest degradation seen (Dmax) was less than 50%.

Take `CNC(=O)COc1cc2cc(Nc3nc(N4CCC(O[C@H]5C[C@H](N6CCN(c7ccc8c(c7)n(C(C)C)c(=O)n8C7CCC(=O)NC7=O)CC6)C5)CC4)ncc3Cl)ccc2n(C(C)C)c1=O` (stereo partly shown) [Compound 12, 2-({6-[(5-chloro-2-{4-[(1r,3r)-3-{4-[1-(2,6-dioxopiperidin-3-yl)-2-oxo-3-(propan-2-yl)-2,3-dihydro-1H-1,3-benzodiazol-5-yl]piperazin-1-yl}cyclobutoxy]piperidin-1-yl}pyrimidin-4-yl)amino]-2-oxo-1-(propan-2-yl)-1,2-dihydroquinolin-3-yl}oxy)-N-methylacetamide]: the half-maximal degradation concentration (DC50) is less than 0.01 µM and the Dmax was no less than 70%.

`CNC(=O)COc1cc2cc(Nc3nc(N4CCC(O[C@H]5C[C@H](N6CCN(c7ccc8c(c7)n(C)c(=O)n8C7CCC(=O)NC7=O)[C@H](C)C6)C5)CC4)ncc3Cl)ccc2n(C(C)C)c1=O` (stereo partly drawn) [Compound 13, 2-({6-[(5-chloro-2-{4-[(1r,3r)-3-[(3R)-4-[1-(2,6-dioxopiperidin-3-yl)-3-methyl-2-oxo-2,3-dihydro-1H-1,3-benzodiazol-5-yl]-3-methylpiperazin-1-yl]cyclobutoxy]piperidin-1-yl}pyrimidin-4-yl)amino]-2-oxo-1-(propan-2-yl)-1,2-dihydroquinolin-3-yl}oxy)-N-methylacetamide]: the half-maximal degradation concentration (DC50) was less than 0.01 µM and the Dmax was no less than 70%.

Consider `CNC(=O)COc1cc2cc(Nc3nc(N4CCC(O[C@H]5C[C@H](N6CCN(c7cc8c(cn7)n(C7CCC(=O)NC7=O)c(=O)n8C)CC6)C5)CC4)ncc3Cl)ccc2n(C(C)C)c1=O` (stereo partly shown) [Compound 14, 2-({6-[(5-chloro-2-{4-[(1r,3r)-3-{4-[3-(2,6-dioxopiperidin-3-yl)-1-methyl-2-oxo-1H,2H,3H-imidazo[4,5-c]pyridin-6-yl]piperazin-1-yl}cyclobutoxy]piperidin-1-yl}pyrimidin-4-yl)amino]-2-oxo-1-(propan-2-yl)-1,2-dihydroquinolin-3-yl}oxy)-N-methylacetamide], for which the half-maximal degradation concentration (DC50) is less than 0.01 µM and the greatest degradation seen (Dmax) was in the range of 50 to 70%.

In the case of `CNC(=O)COc1cc2cc(Nc3nc(N4CCC(O[C@H]5C[C@H](N6CCN(c7cc8c(cc7OC)n(C7CCC(=O)NC7=O)c(=O)n8C)CC6)C5)CC4)ncc3Cl)ccc2n(C(C)C)c1=O` (stereo partly shown) [Compound 15, 2-({6-[(5-chloro-2-{4-[(1r,3r)-3-{4-[1-(2,6-dioxopiperidin-3-yl)-6-methoxy-3-methyl-2-oxo-2,3-dihydro-1H-1,3-benzodiazol-5-yl]piperazin-1-yl}cyclobutoxy]piperidin-1-yl}pyrimidin-4-yl)amino]-2-oxo-1-(propan-2-yl)-1,2-dihydroquinolin-3-yl}oxy)-N-methylacetamide], the 50% degradation concentration (DC50) is less than 0.01 µM and the maximal degradation (Dmax) was 50 to 70%.

In the case of `CNC(=O)COc1cc2cc(Nc3nc(N4CCC(O[C@H]5C[C@H](N6CCN(c7cnc8c(c7)n(C)c(=O)n8C7CCC(=O)NC7=O)CC6)C5)CC4)ncc3Cl)ccc2n(C(C)C)c1=O` (stereo partly shown) [Compound 16, 2-({6-[(5-chloro-2-{4-[(1r,3r)-3-{4-[3-(2,6-dioxopiperidin-3-yl)-1-methyl-2-oxo-1H,2H,3H-imidazo[4,5-b]pyridin-6-yl]piperazin-1-yl}cyclobutoxy]piperidin-1-yl}pyrimidin-4-yl)amino]-2-oxo-1-(propan-2-yl)-1,2-dihydroquinolin-3-yl}oxy)-N-methylacetamide], the DC50 is less than 0.01 µM and the Dmax fell in the range of 50 to 70%.

The molecule `CNC(=O)COc1cc2cc(Nc3nc(N4CCC(O[C@H]5C[C@H](N6CCN(c7ccc8c(ccn8C8CCC(=O)NC8=O)c7)CC6)C5)CC4)ncc3Cl)ccc2n(C(C)C)c1=O` (stereo partly shown) [Compound 17, 2-({6-[(5-chloro-2-{4-[(1r,3r)-3-{4-[1-(2,6-dioxopiperidin-3-yl)-1H-indol-5-yl]piperazin-1-yl}cyclobutoxy]piperidin-1-yl}pyrimidin-4-yl)amino]-2-oxo-1-(propan-2-yl)-1,2-dihydroquinolin-3-yl}oxy)-N-methylacetamide] gave a DC50 of less than 0.01 µM and a Dmax of no less than 70%.

`CNC(=O)COc1cc2cc(Nc3nc(N4CCC(O[C@H]5C[C@H](N6CCN(c7ccc8c(c7)n(C)c(=O)n8C7CCC(=O)NC7=O)[C@@H](C)C6)C5)CC4)ncc3Cl)ccc2n(C(C)C)c1=O` (stereo partly drawn) [Compound 18, 2-({6-[(5-chloro-2-{4-[(1r,3r)-3-[(3S)-4-[1-(2,6-dioxopiperidin-3-yl)-3-methyl-2-oxo-2,3-dihydro-1H-1,3-benzodiazol-5-yl]-3-methylpiperazin-1-yl]cyclobutoxy]piperidin-1-yl}pyrimidin-4-yl)amino]-2-oxo-1-(propan-2-yl)-1,2-dihydroquinolin-3-yl}oxy)-N-methylacetamide] came in with a half-maximal degradation concentration (DC50) of less than 0.01 µM and a Dmax of no less than 70%.

In turn, `CNC(=O)COc1cc2cc(Nc3nc(N4CCC(O[C@H]5C[C@H](N6CCN(c7ccc8c(c7C)n(C)c(=O)n8C7CCC(=O)NC7=O)CC6)C5)CC4)ncc3Cl)ccc2n(C(C)C)c1=O` (stereo partly shown) [Compound 19, 2-({6-[(5-chloro-2-{4-[(1r,3r)-3-{4-[1-(2,6-dioxopiperidin-3-yl)-3,4-dimethyl-2-oxo-2,3-dihydro-1H-1,3-benzodiazol-5-yl]piperazin-1-yl}cyclobutoxy]piperidin-1-yl}pyrimidin-4-yl)amino]-2-oxo-1-(propan-2-yl)-1,2-dihydroquinolin-3-yl}oxy)-N-methylacetamide] yielded a 50% degradation concentration (DC50) of less than 0.01 µM and a Dmax of no less than 70%.

In turn, `CNC(=O)COc1cc2cc(Nc3nc(N4CCC(O[C@H]5C[C@H](N6CCN(c7cc8c(cc7C)n(C7CCC(=O)NC7=O)c(=O)n8C)CC6)C5)CC4)ncc3Cl)ccc2n(C(C)C)c1=O` (stereo partly shown) [Compound 20, 2-({6-[(5-chloro-2-{4-[(1r,3r)-3-{4-[1-(2,6-dioxopiperidin-3-yl)-3,6-dimethyl-2-oxo-2,3-dihydro-1H-1,3-benzodiazol-5-yl]piperazin-1-yl}cyclobutoxy]piperidin-1-yl}pyrimidin-4-yl)amino]-2-oxo-1-(propan-2-yl)-1,2-dihydroquinolin-3-yl}oxy)-N-methylacetamide] gave a DC50 of less than 0.01 µM and a Dmax of no less than 70%.
